From ChEMBL document CHEMBL1149326, “Inhibitors of farnesyltransferase: a rational approach to cancer chemotherapy?” (J Med Chem, 2004)

Key:
Rat1 = assay: Inhibition of H-ras-transformed Rat1 cells; assay type: functional, cell-based; conditions: Rattus norvegicus
[1] = target: T1, Protein farnesyltransferase (Homo sapiens, UniProt P49354+P49356); assay: Inhibitory concentration against farnesyltransferase was determined; assay type: protein-complex assay
[2] = target: T2, Geranylgeranyl transferase type I (Homo sapiens, UniProt P49354+P53609); assay: Inhibition binding constant Geranylgeranyl transferase type I; assay type: protein-complex assay
[3] = target: T1, Protein farnesyltransferase; assay: Effective concentration required to inhibit HDJ2 farnesylation in PSN-1 cells; assay type: functional, cell-based
NIH3T3 = assay: Inhibition of growth of H-ras-transformed 3T3 fibroblasts
[4] = target: T2, Geranylgeranyl transferase type I; assay: Inhibition binding constant against Geranylgeranyl transferase type I; assay type: protein-complex assay
[5] = target: T1, Protein farnesyltransferase; assay: Inhibition binding constant against Farnesyltransferase; assay type: protein-complex assay

Work on CC[C@@H](C)[C@@H](CN(CC(=O)N[C@@H](CCSC)C(=O)OC)Cc1cccc2ccccc12)NC(=O)Cc1cncn1Cc1ccc(C#N)cc1 yielded an IC50 (Rat1) of 630 nM.
For CC[C@@H](C)[C@@H](CO[C@@H](Cc1ccccc1)C(=O)N[C@@H](CCS(C)(=O)=O)C(=O)O)NC[C@@H](N)S, the IC50 [1] was 1.8 nM.
Compound COC(=O)[C@H](CC(C)C)NC(=O)c1ccc(NC[C@@H](N)CS)cc1-c1cccc2ccccc12 has an IC50 [2] of 54 nM.
Work on O=C(c1ccccc1OC(F)(F)F)N1CCN(Cc2cnc[nH]2)c2ccc(-c3ccncc3)cc2C1 yielded an IC50 [1] of 24 nM.
In the case of N#Cc1ccc2cc1Oc1ccc3c(c1)[C@@H](CCC3)N1CC[C@@H](NCc3cncn3C2)C1=O, the IC50 [1] is reported as less than 1 nM and the EC50 [3] is reported as 0.18 nM.
N#Cc1ccc2cc1Oc1ccc3cccc(c3c1)N1CCN(CC1=O)Cc1cncn1C2 showed an IC50 [1] of 0.2 nM.
In the case of CSCC[C@H](NC(=O)c1cc(NC[C@@H]2C[C@H](SC(=O)c3cccnc3)CN2)ccc1CCc1ccc(F)cc1)C(=O)OC(C)C, the IC50 (NIH3T3) is reported as 49 nM, the Ki [4] is reported as 8 nM and the Ki [5] is reported as less than 1 nM.
With CC(=O)N1CCC(=C2c3ccc(Cl)cc3CCc3cccnc32)CC1 [SCH-37370] the IC50 [1] was 27000 nM.
